Test results taken from PMC4773988, “Structure-based Inhibitor Design for the Intrinsically Disordered Protein c-Myc” (Scientific Reports, 2016).

Assays:
Solubility in water = assay type: physicochemical
[1] = cited from earlier work

Solubility in water (Solubility in water) | Molecule | Cell penetration [1]
less soluble in water | O=C(NC(NC(=S)Nc1ccc(I)cc1)C(Cl)(Cl)Cl)OCc1ccccc1 (stereo not drawn) [PKUMDL-YC-1203] | –
less soluble in water | Cc1ccccc1C(=O)NC(NC(=S)Nc1cc(Cl)cc(Cl)c1Cl)C(Cl)(Cl)Cl (stereo not drawn) [PKUMDL-YC-1204] | –
– | JY-3-094 | penetrates cells poorly
